Laboratory results published in PubChem BioAssay (NCI).
“And” between values parts separate entries of the source, which are not always exact repeats. Equal values may be shown once.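 1) Cells in 96-well plates. 2) Compound, 48 h, 5 concentrations. 3) Linear interpolation between surrounding doses. 4) Unreached endpoint = highest concentration. GI50 is the concentration that inhibits growth by half. TGI denotes the concentration required for complete inhibition of growth.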 *1 amine or outer side, *2 acyl side, *3 side chain or, on linkers, in order; H or OH if unused. Where a SMILES comes first, the peptide text is derived from it. Bridges are numbered along the chain shown (N, C = ends). Roman numbers before positions name the chains, in order. [ ]: non-standard residue; d: D form. Actinocin(9to1) = Cc1c2oc3c(C)ccc(C(=O)[*:1])c3nc-2c(C(=O)[*:2])c(N)c1=O; NMeT = CN[CH](C(=O)O)[CH](C)O; Sar = CNCC(=O)O

Columns and labels:
Experiment in all cases: NCI tumour cell line growth inhibition, 48 h
[1] = system: TK-10 renal
[2] = system: NCI-H23 lung
[3] = system: HT29 colon
[4] = system: MOLT-4 leukemia
[5] = system: HS 578T breast
[6] = system: NCI-H226 lung
[7] = system: LOX IMVI melanoma
[8] = system: SR leukemia
[9] = system: IGROV1 ovarian
[10] = system: UO-31 renal

SMILES | GI50 [1] | TGI [1] [µM] | TGI [2] | GI50 [3] | TGI [3] [µM] | TGI [4] | TGI [5] [µM] | GI50 [6] | TGI [6] | TGI [7] | GI50 [8] | TGI [8] | TGI [9] [µM] | GI50 [10] | TGI [10] | GI50 [2] [µM] | GI50 [4] [µM] | GI50 [5] [µM] | GI50 [7] [µM] | GI50 [9] [µM]
Cc1c2oc3c(C)ccc(C(=O)NC4C(=O)NC(C(C)C)C(=O)N5CCCC5C(=O)N(C)CC(=O)N(C)C(C(C)O)C(=O)OC4C)c3nc-2c(C(=O)NC2C(=O)NC(C(C)C)C(=O)N3CCCC3C(=O)N(C)CC(=O)N(C)C(C(C)O)C(=O)OC2C)c(N)c1=O (configuration not stated) (I: TVP[Sar][NMeT] / II: TVP[Sar][NMeT]; ester I:1-I:C, II:1-II:C; linker I:N-II:N via Actinocin(9to1); configuration not given here) | 4.2 µM and > 1 µM | > 28.8 | 18.3 µM and > 1 µM | 3.17 µM and 0.724 µM | > 100 | 11.1 µM and > 1 µM | > 27.1 | 1.47 µM and 0.618 µM | 26.8 µM and > 1 µM | 7.84 µM and > 1 µM | 1.1 µM and 0.187 µM | 5.35 µM and > 1 µM | > 41.7 | 2.99 µM and > 1 µM | 24.8 µM and > 1 µM |  |  |  |  | 
CCN(Cc1ccccc1)c1ccc(CO)c(Cl)c1 | 0.0649 µM | 0.281 | > 86 µM | 3.07 µM | 36.3 | > 87.2 µM | > 84.9 | 0.0913 µM | 0.233 µM | > 100 µM | > 52.1 µM | > 100 µM | 0.934 | 6.5 µM | > 100 µM | 9.44 | 29.9 | 23.2 | 23.8 | 0.112
COc1ccc(-c2cc(-c3cccn3C)c(C#N)c(=O)[nH]2)cc1OC | > 100 µM | > 100 | > 100 µM | > 100 µM | > 100 | > 100 µM | > 100 | > 100 µM | > 100 µM | > 100 µM | 0.483 µM | > 100 µM | > 100 | 85.1 µM | > 100 µM | > 100 | 22.7 | > 100 | > 100 | 91.7
N#CC1=C(N)Oc2c(ccc3ccccc23)C1c1ccccc1 (configuration not stated) | 7.57 µM | 27 | 16.9 µM | 0.146 µM | 11.1 | 16.8 µM | 21.3 | 0.463 µM | 19.4 µM | 3.25 µM | 0.0336 µM | 22.4 µM | 16.9 | 0.0622 µM | 15.2 µM | 0.0648 | 0.0574 | 0.0316 | 0.0575 | 0.0654
CCC(=O)Nc1ccccc1C#C/C=C\C#Cc1ccccc1SC | 50.4 µM | > 100 | > 100 µM | 5.2 µM | > 100 | > 100 µM | > 100 | 16.9 µM | > 100 µM | > 100 µM | 1.68 µM | > 100 µM | 37.3 | 0.838 µM | 28.6 µM | 22.7 | 4.46 | 17.1 | 5.47 | 0.738
CC(=Nc1ccccc1)C1=C(O)C(Cc2ccc(O)cc2)NC1=O (configuration not stated) | 0.252 µM | > 100 | > 100 µM | 0.0472 µM | 0.452 | > 100 µM |  | 0.968 µM | > 100 µM | > 23.1 µM | 0.0283 µM |  |  | 0.321 µM | > 100 µM | 0.139 | 0.371 | 0.0771 | 0.152 | 0.232
C=C1C(=O)O[C@H]2[C@H]1CC/C(COC(=O)C(=O)c1cn(C)c3ccc(Cl)cc13)=C\CC[C@@]1(C)O[C@@H]21 | 1.42 µM | 2.98 | 3.05 µM | 0.339 µM | 1.19 | 4.17 µM | 17.6 | 1.46 µM | 3.08 µM | 0.387 µM | 0.3 µM | 50 µM | 2.78 | 0.817 µM | 2.17 µM | 1.39 | 0.494 | 3.14 | 0.191 | 1.17
CC(=C/C=C/C=C(C)\C=C\C=C(\C)C(=O)O)/C=C/C=C(/C)C(=O)O |  | > 100 | > 100 µM |  | > 100 | > 100 µM | > 100 |  | > 100 µM | > 100 µM |  | > 100 µM | > 100 |  | > 100 µM |  |  |  |  | 
COc1cc2c(cc1OC)-c1ccc3cc4c(cc3c1N(CCCn1ccnc1)C2)OCO4 | 25.2 µM | 60.5 | 21.3 µM | 3.22 µM | 30.7 | > 100 µM | 40 | 5.52 µM | 24.8 µM | 4.7 µM | 0.579 µM | > 100 µM | 29.9 | 16.7 µM | 60.5 µM | 2.23 | 0.467 | 5.75 | 1.62 | 3.61
O=C1O/C(=C\c2ccccc2)N(c2ccccc2)C1=O |  | > 100 | > 100 µM |  | > 100 | > 100 µM | > 100 |  | > 100 µM | > 100 µM |  | > 100 µM | > 100 |  | > 100 µM |  |  |  |  | 
C=C1C(=O)O[C@H]2[C@H]1CC/C(COC(=O)c1cc3ccccc3o1)=C\CC[C@@]1(C)O[C@@H]21 | 3.01 µM | 9.45 | 4.75 µM | 0.829 µM | 2.21 | 6.06 µM | 10.9 | 1.74 µM | 3.6 µM | 2.81 µM | 1.15 µM | 5.33 µM | 3.23 | 1.46 µM | 2.79 µM | 1.98 | 1.77 | 2.91 | 1.42 | 1.39
